pIC50: −log10 of the molar value.
Molecular target: T1, C-terminal His6-tagged, recombinant, human JAK2, amino acids 808-end (Homo sapiens, UniProt O60674)
T1 construct: His6 (C); purchased Upstate Biotechnology MA; host or cells: baculovirus in Sf21 cells
Test: JAK2 kinase Alphascreen assay (Method 1)
Format: biochemical
Conditions: Alphascreen, 150 pM JAK2 enzyme, 5 mM ATP, 80 nM Tyk2 peptide, 60 minutes room temperature; read-out: IC50 Assay (Method 1)
Experimental: To measure JAK2 kinase activity, a commercially available purified enzyme may be used. […] After incubation of the kinase with a biotinylated substrate and adenosine triphosphate (ATP) for 60 minutes at room temperature, the kinase reaction may be stopped by the addition of 30 mM ethylenediaminetetraacetic acid (EDTA). The reaction may be performed in 384 well microtitre plates and the reaction products may be detected with the addition of streptavidin coated Donor Beads and phosphotyrosine-specific antibodies coated Acceptor Beads using the EnVision Multilabel Plate Reader after an overnight incubation at room temperature. “Tween 20” is a registered trademark of ICI Americas, Inc.

T1 sequence (O60674 808-1132 limits assumed): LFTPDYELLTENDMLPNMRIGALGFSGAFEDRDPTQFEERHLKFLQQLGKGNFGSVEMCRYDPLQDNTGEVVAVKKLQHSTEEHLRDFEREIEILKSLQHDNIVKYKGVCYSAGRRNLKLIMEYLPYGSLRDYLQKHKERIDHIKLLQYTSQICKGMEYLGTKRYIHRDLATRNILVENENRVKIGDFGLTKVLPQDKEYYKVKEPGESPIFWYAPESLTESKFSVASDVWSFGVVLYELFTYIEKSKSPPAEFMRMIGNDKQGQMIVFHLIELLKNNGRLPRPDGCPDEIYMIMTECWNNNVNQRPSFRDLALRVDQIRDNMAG

Row | pIC50 | Compound
1 | 6.66 | CC(Nc1nc2c(c(Nc3cn(C)cn3)n1)CNCC2)c1ncc(F)cn1 (single isomer, unassigned) [17(a), N^2-[1-(5-Fluoropyrimidin-2-yl)ethyl]-N^4-(1-methyl-1H-imidazol-4-yl)-5,6,7,8-tetrahydropyrido[4,3-d]pyrimidine-2,4-diamine]
2 | 6.70 | CC(Nc1nc(Nc2cn(C)cn2)c2nccnc2n1)c1ncc(F)cn1 (single isomer, unassigned) [Example 10(b), N^2-[1-(5-Fluoropyrimidin-2-yl)ethyl]-N^4-(1-methyl-1H-imidazol-4-yl)pteridine-2,4-diamine]
3 | 5.19 | CC(Nc1nc(Nc2cn(C)cn2)c2cnn(C)c2n1)c1ncc(F)cn1 (single isomer, unassigned) [Example 11(a), N^6-[1-(5-Fluoropyrimidin-2-yl)ethyl]-1-methyl-N^4-(1-methyl-1H-imidazol-4-yl)-1H-pyrazolo[3,4-d]pyrimidine-4,6-diamine]
4 | 8.52 | CC(Nc1nc(Nc2cn(C)cn2)c2ccc(O)nc2n1)c1ncc(F)cc1F (racemic) [Example 35, 2-{[1-(3,5-Difluoropyridin-2-yl)ethyl]amino}-4-[(1-methyl-1H-imidazol-4-yl)amino]pyrido[2,3-d]pyrimidin-7-ol]
5 | > 8.52 | CC(Nc1nc(Nc2cn(C)cn2)c2ccc(N3CCOCC3)nc2n1)c1ncc(F)cc1F (single isomer, unassigned) [Example 40(b), N^2-[1-(3,5-Difluoropyridin-2-yl)ethyl]-N^4-(1-methyl-1H-imidazol-4-yl)-7-morpholin-4-ylpyrido[2,3-d]pyrimidine-2,4-diamine]
6 | 6.24 | Cc1nc2c(Nc3cn(C)cn3)nc(NC(C)c3ncc(F)cn3)nc2s1 (single isomer, unassigned) [Example 7(a), N^5-[1-(5-Fluoropyrimidin-2-yl)ethyl]-2-methyl-N^7-(1-methyl-1H-imidazol-4-yl)[1,3]thiazolo[5,4-d]pyrimidine-5,7-diamine]
7 | 5.27 | CC(Nc1nc(Nc2cn(C)cn2)c2cnn(C)c2n1)c1ncc(F)cc1F (single isomer, unassigned) [Example 14(a), N^6-[1-(3,5-Difluoropyridin-2-yl)ethyl]-1-methyl-N^4-(1-methyl-1H-imidazol-4-yl)-1H-pyrazolo[3,4-d]pyrimidine-4,6-diamine]
8 | 5.70 | CC(Nc1nc2c(c(Nc3cn(C)cn3)n1)CNCC2)c1ncc(F)cn1 (single isomer, unassigned) [17(b), N^2-[1-(5-Fluoropyrimidin-2-yl)ethyl]-N^4-(1-methyl-1H-imidazol-4-yl)-5,6,7,8-tetrahydropyrido[4,3-d]pyrimidine-2,4-diamine]
9 | 6.30 | COc1ccc2nc(NC(C)c3ncc(F)cc3F)nc(Nc3cn(C)cn3)c2c1 (racemic) [Example 29, N^2-[1-(3,5-Difluoropyridin-2-yl)ethyl]-6-methoxy-N^4-(1-methyl-1H-imidazol-4-yl)quinazoline-2,4-diamine]
10 | 5.72 | Cc1nc2c(Nc3cn(C)cn3)nc(N[C@@H](C)c3ncc(F)cn3)nc2s1 [Example 7, N^5-[(1S)-1-(5-Fluoropyrimidin-2-yl)ethyl]-2-methyl-N^7-(1-methyl-1H-imidazol-4-yl)[1,3]thiazolo[5,4-d]pyrimidine-5,7-diamine]
11 | > 8.52 | CC(Nc1nc(Nc2cn(C)cn2)c2cccnc2n1)c1ncc(F)cc1F (single isomer, unassigned) [Example 12(a), N^2-[1-(3,5-Difluoropyridin-2-yl)ethyl]-N^4-(1-methyl-1H-imidazol-4-yl)pyrido[2,3-d]pyrimidine-2,4-diamine]
12 | > 8.52 | C[C@H](Nc1nc(Nc2cn(C)cn2)c2ccc(Cl)nc2n1)c1ncc(F)cn1 [Example 42, 7-Chloro-N^2-[(1S)-1-(5-fluoropyrimidin-2-yl)ethyl]-N^4-(1-methyl-1H-imidazol-4-yl)pyrido[2,3-d]pyrimidine-2,4-diamine]
13 | > 8.52 | CC(Nc1nc(Nc2cn(C)cn2)c2ccncc2n1)c1ncc(F)cc1F (single isomer, unassigned) [Example 43(a), N^2-[1-(3,5-Difluoropyridin-2-yl)ethyl]-N^4-(1-methyl-1H-imidazol-4-yl)pyrido[3,4-d]pyrimidine-2,4-diamine]
14 | 6.67 | Cc1ccc(S(=O)(=O)n2ccc3c(Nc4cn(C)cn4)nc(N[C@@H](C)c4ncc(F)cn4)nc32)cc1 [Example 3, N^2-[(1S)-1-(5-Fluoropyrimidin-2-yl)ethyl]-N^4-(1-methyl-1H-imidazol-4-yl)-7-[(4-methylphenyl)sulfonyl]-7H-pyrrolo[2,3-d]pyrimidine-2,4-diamine]
15 | 5.19 | CC(Nc1nc(Nc2cn(C)cn2)c2nccnc2n1)c1ncc(F)cn1 (single isomer, unassigned) [Example 10(a), N^2-[1-(5-Fluoropyrimidin-2-yl)ethyl]-N^4-(1-methyl-1H-imidazol-4-yl)pteridine-2,4-diamine]
16 | 8.40 | COc1ccc2c(Nc3cn(C)cn3)nc(N[C@@H](C)c3ncc(F)cn3)nc2c1 [Example 30, N^2-[(1S)-1-(5-Fluoropyrimidin-2-yl)ethyl]-7-methoxy-N^4-(1-methyl-1H-imidazol-4-yl)quinazoline-2,4-diamine]
17 | 5.49 | COCC(Nc1nc(Nc2cn(C)cn2)c2cnn(C)c2n1)c1ncc(F)cc1F (single isomer, unassigned) [Example 13(a)]

Second part, the compound before the results:

Row | Compound | pIC50
18 | C[C@H](Nc1nc(Nc2cn(C)cn2)c2cnn(CCO)c2n1)c1ncc(F)cn1 [Example 15, 2-(6-{[(1S)-1-(5-Fluoropyrimidin-2-yl)ethyl]amino}-4-[(1-methyl-1H-imidazol-4-yl)amino]-1H-pyrazolo[3,4-d]pyrimidin-1-yl)ethanol] | 8.52
19 | C[C@H](Nc1ccc2c(Nc3cn(C)cn3)nc(N[C@@H](C)c3ncc(F)cn3)nc2n1)c1ncc(F)cn1 [Example 39, N^2,N^7-bis[(1S)-1-(5-fluoropyrimidin-2-yl)ethyl]-N^4-(1-methyl-1H-imidazol-4-yl)pyrido[2,3-d]pyrimidine-2,4,7-triamine] | 8.52
20 | CC(Nc1nc(Nc2cn(C)cn2)c2ccccc2n1)c1ncc(F)cn1 (single isomer, unassigned) [Example 45(a), N^2-[1-(5-Fluoropyrimidin-2-yl)ethyl]-N^4-(1-methyl-1H-imidazol-4-yl)quinazoline-2,4-diamine] | 7.19
21 | C[C@H](Nc1nc(Nc2cn(C)cn2)c2[nH]ccc2n1)c1ncc(F)cn1 [Example 6, N^2-[(1S)-1-(5-Fluoropyrimidin-2-yl)ethyl]-N^4-(1-methyl-1H-imidazol-4-yl)-5H-pyrrolo[3,2-d]pyrimidine-2,4-diamine] | > 8.52
22 | C[C@H](Nc1nc2c(c(Nc3cn(C)cn3)n1)CCC2)c1ncc(F)cn1 [Example 8, N^2-[(1S)-1-(5-Fluoropyrimidin-2-yl)ethyl]-N^4-(1-methyl-1H-imidazol-4-yl)-6,7-dihydro-5H-cyclopenta[d]pyrimidine-2,4-diamine] | 7.80
23 | C[C@H](Nc1nc(Nc2cn(C)cn2)c2ccc(NC3CC3)nc2n1)c1ncc(F)cn1 [Example 36, N^7-Cyclopropyl-N^2-[(1S)-1-(5-fluoropyrimidin-2-yl)ethyl]-N^4-(1-methyl-1H-imidazol-4-yl)pyrido[2,3-d]pyrimidine-2,4,7-triamine] | 8.52
24 | CC(Nc1nc2c(c(Nc3cn(C)cn3)n1)CNC2)c1ncc(F)cn1 (single isomer, unassigned) [Example 18(b), N^2-[1-(5-Fluoropyrimidin-2-yl)ethyl]-N^4-(1-methyl-1H-imidazol-4-yl)-6,7-dihydro-5H-pyrrolo[3,4-d]pyrimidine-2,4-diamine] | 6.35
25 | CC(Nc1nc(Nc2cn(C)cn2)c2cccnc2n1)c1ncc(F)cc1F (single isomer, unassigned) [Example 12(b), N^2-[1-(3,5-Difluoropyridin-2-yl)ethyl]-N^4-(1-methyl-1H-imidazol-4-yl)pyrido[2,3-d]pyrimidine-2,4-diamine] | 6.33
26 | CC(Nc1nc(Nc2cn(C)cn2)c2ccc(N3CCOCC3)nc2n1)c1ncc(F)cc1F (single isomer, unassigned) [Example 40(a), N^2-[1-(3,5-Difluoropyridin-2-yl)ethyl]-N^4-(1-methyl-1H-imidazol-4-yl)-7-morpholin-4-ylpyrido[2,3-d]pyrimidine-2,4-diamine] | 6.31
27 | C[C@H](Nc1nc(Nc2cn(C)cn2)c2ccccc2n1)c1ncc(F)cn1 [Example 45, N^2-[(1S)-1-(5-Fluoropyrimidin-2-yl)ethyl]-N^4-(1-methyl-1H-imidazol-4-yl)quinazoline-2,4-diamine] | > 8.52
28 | C[C@H](Nc1nc(Nc2cn(C)cn2)c2cccnc2n1)c1ncc(F)cn1 [Example 16, N^2-[(1S)-1-(5-Fluoropyrimidin-2-yl)ethyl]-N^4-(1-methyl-1H-imidazol-4-yl)pyrido[2,3-d]pyrimidine-2,4-diamine] | > 8.52
29 | COCC(Nc1nc(Nc2cn(C)cn2)c2cnn(C)c2n1)c1ncc(F)cc1F (single isomer, unassigned) [Example 13(b), N^6-[1-(3,5-Difluoropyridin-2-yl)-2-methoxyethyl]-1-methyl-N^4-(1-methyl-1H-imidazol-4-yl)-1H-pyrazolo[3,4-d]pyrimidine-4,6-diamine] | > 8.52

Same assay, conditions: IC50 Assay (Method 1)

Row | Compound | pIC50
30 | CC(Nc1nc(Nc2cn(C)cn2)c2cc(F)cnc2n1)c1ncc(F)cn1 (single isomer, unassigned) [Example 38(b), 6-Fluoro-N^2-[1-(5-fluoropyrimidin-2-yl)ethyl]-N^4-(1-methyl-1H-imidazol-4-yl)pyrido[2,3-d]pyrimidine-2,4-diamine] | 6.31
